Reference: US12545673B2, “Imidazopyridine derivative and pharmaceutical composition comprising same as active ingredient” (TSD LIFE SCIENCES CO., LTD., priority 2019, dated 2026)
pIC50: −log10 of the molar value. Where two headings read alike, the source gives them in different places.

Key:
[1] = tested on: human breast cancer cell line MDA-MB-231; assay: Cancer cell proliferation inhibitory activity evaluation 1 (CCK-8), MDA-MB-231; assay type: cell-based
[2] = tested on: acute myeloid leukemia cell line U937; assay: Cancer cell proliferation inhibitory activity evaluation 1 (CCK-8), U937; assay type: cell-based; details: Homo sapiens, read-out: Cancer cell proliferation inhibitory activity U937
[3] = tested on: colorectal cancer cell line HT-29; assay: Cancer cell proliferation inhibitory activity evaluation 1 (CCK-8), HT-29; assay type: cell-based; details: Homo sapiens, read-out: Cancer cell proliferation inhibitory activity HT29
[4] = tested on: chronic myeloid leukemia cell line K562; assay: Cancer cell proliferation inhibitory activity evaluation 1 (CCK-8), K562; assay type: cell-based; details: Homo sapiens, read-out: Cancer cell proliferation inhibitory activity K562
[5] = tested on: acute myeloid leukemia cell line U937; assay: Cancer cell proliferation inhibitory activity evaluation 2 (CCK-8), U937; assay type: cell-based; details: Homo sapiens, read-out: Cancer cell proliferation inhibitory activity U937
[6] = tested on: acute lymphoblastic leukemia cell line Jurkat; assay: Cancer cell proliferation inhibitory activity evaluation 2 (CCK-8), Jurkat; assay type: cell-based; details: Homo sapiens
[7] = tested on: gastric cancer cell line AGS; assay: Cancer cell proliferation inhibitory activity evaluation 2 (CCK-8), AGS; assay type: cell-based; details: Homo sapiens, read-out: Cancer cell proliferation inhibitory activity AGS
[8] = tested on: influenza virus PR8; assay: microbe, parasite or virus in culture; assay type: cell-based; details: for EC50: unidentified influenza virus, PR8, MDCK, read-out: Antiviral activity (EC50, μM) PR8
[9] = tested on: influenza virus HK; assay: microbe, parasite or virus in culture; assay type: cell-based; details: for EC50: unidentified influenza virus, MDCK, read-out: Antiviral activity (EC50, μM) HK
[10] = tested on: influenza virus LE; assay: microbe, parasite or virus in culture; assay type: cell-based; details: for EC50: unidentified influenza virus, MDCK, read-out: Antiviral activity (EC50, μM) LE
[11] = in vitro; details: dog
[12] = biological target: MLK1 (Homo sapiens (Human), UniProt P80192); assay: Evaluation of inhibitory activity of enzyme units, MLK1 ([γ-33P]-ATP filter assay); assay type: biochemical
MLK1, sequence (P80192 whole entry, looked up): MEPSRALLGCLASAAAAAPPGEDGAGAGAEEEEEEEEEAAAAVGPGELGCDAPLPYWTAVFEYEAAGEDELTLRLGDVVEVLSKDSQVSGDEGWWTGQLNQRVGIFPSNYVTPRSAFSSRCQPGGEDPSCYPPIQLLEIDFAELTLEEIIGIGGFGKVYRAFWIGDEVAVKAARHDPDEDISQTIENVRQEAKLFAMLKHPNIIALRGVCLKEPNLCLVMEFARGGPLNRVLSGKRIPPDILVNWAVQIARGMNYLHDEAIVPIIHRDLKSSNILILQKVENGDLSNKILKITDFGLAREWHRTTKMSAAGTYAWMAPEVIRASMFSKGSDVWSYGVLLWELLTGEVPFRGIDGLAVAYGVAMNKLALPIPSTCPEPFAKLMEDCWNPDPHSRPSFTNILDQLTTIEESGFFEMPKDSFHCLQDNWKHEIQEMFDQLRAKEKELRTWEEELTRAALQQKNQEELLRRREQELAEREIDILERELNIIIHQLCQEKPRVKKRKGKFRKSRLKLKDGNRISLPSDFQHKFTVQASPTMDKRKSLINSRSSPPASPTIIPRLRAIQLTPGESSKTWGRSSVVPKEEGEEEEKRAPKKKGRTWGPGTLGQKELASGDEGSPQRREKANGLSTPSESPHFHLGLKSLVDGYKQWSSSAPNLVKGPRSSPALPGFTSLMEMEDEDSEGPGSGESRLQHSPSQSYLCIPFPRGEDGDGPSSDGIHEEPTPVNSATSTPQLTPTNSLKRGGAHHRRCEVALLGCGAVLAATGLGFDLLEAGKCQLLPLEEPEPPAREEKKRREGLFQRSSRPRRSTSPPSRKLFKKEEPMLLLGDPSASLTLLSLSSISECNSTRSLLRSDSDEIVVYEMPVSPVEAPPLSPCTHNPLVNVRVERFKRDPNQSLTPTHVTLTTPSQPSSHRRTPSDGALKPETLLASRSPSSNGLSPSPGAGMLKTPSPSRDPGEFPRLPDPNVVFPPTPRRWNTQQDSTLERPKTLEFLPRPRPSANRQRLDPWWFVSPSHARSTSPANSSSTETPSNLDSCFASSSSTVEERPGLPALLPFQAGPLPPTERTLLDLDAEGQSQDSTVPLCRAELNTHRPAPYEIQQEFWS

[13] = tested on: α-SMA; assay: Fibrosis inhibition evaluation 1, palmitic acid-induced HepG2, real-time PCR, α-SMA; assay type: cell-based, human; details: palmitic acid-induced HepG2 (Table 6)
[14] = tested on: Col1A1; assay: Fibrosis inhibition evaluation 1, palmitic acid-induced HepG2, real-time PCR, Col1A1; assay type: cell-based, human
[15] = tested on: Col6A3; assay: Fibrosis inhibition evaluation 1, palmitic acid-induced HepG2, real-time PCR, Col6A3; assay type: cell-based, human
[16] = biological target: LRRK2 wild-type (Homo sapiens (Human), UniProt Q5S007); assay: Evaluation of inhibitory activity against LRRK2 (affinity bead competition binding), wild-type; details: read-out: Residual active values (%) LRRK2; for remaining binding at 0.1 µM: 100 nM; for remaining binding at 0.5 µM: 500 nM
LRRK2 wild-type, sequence (Q5S007 whole entry, looked up): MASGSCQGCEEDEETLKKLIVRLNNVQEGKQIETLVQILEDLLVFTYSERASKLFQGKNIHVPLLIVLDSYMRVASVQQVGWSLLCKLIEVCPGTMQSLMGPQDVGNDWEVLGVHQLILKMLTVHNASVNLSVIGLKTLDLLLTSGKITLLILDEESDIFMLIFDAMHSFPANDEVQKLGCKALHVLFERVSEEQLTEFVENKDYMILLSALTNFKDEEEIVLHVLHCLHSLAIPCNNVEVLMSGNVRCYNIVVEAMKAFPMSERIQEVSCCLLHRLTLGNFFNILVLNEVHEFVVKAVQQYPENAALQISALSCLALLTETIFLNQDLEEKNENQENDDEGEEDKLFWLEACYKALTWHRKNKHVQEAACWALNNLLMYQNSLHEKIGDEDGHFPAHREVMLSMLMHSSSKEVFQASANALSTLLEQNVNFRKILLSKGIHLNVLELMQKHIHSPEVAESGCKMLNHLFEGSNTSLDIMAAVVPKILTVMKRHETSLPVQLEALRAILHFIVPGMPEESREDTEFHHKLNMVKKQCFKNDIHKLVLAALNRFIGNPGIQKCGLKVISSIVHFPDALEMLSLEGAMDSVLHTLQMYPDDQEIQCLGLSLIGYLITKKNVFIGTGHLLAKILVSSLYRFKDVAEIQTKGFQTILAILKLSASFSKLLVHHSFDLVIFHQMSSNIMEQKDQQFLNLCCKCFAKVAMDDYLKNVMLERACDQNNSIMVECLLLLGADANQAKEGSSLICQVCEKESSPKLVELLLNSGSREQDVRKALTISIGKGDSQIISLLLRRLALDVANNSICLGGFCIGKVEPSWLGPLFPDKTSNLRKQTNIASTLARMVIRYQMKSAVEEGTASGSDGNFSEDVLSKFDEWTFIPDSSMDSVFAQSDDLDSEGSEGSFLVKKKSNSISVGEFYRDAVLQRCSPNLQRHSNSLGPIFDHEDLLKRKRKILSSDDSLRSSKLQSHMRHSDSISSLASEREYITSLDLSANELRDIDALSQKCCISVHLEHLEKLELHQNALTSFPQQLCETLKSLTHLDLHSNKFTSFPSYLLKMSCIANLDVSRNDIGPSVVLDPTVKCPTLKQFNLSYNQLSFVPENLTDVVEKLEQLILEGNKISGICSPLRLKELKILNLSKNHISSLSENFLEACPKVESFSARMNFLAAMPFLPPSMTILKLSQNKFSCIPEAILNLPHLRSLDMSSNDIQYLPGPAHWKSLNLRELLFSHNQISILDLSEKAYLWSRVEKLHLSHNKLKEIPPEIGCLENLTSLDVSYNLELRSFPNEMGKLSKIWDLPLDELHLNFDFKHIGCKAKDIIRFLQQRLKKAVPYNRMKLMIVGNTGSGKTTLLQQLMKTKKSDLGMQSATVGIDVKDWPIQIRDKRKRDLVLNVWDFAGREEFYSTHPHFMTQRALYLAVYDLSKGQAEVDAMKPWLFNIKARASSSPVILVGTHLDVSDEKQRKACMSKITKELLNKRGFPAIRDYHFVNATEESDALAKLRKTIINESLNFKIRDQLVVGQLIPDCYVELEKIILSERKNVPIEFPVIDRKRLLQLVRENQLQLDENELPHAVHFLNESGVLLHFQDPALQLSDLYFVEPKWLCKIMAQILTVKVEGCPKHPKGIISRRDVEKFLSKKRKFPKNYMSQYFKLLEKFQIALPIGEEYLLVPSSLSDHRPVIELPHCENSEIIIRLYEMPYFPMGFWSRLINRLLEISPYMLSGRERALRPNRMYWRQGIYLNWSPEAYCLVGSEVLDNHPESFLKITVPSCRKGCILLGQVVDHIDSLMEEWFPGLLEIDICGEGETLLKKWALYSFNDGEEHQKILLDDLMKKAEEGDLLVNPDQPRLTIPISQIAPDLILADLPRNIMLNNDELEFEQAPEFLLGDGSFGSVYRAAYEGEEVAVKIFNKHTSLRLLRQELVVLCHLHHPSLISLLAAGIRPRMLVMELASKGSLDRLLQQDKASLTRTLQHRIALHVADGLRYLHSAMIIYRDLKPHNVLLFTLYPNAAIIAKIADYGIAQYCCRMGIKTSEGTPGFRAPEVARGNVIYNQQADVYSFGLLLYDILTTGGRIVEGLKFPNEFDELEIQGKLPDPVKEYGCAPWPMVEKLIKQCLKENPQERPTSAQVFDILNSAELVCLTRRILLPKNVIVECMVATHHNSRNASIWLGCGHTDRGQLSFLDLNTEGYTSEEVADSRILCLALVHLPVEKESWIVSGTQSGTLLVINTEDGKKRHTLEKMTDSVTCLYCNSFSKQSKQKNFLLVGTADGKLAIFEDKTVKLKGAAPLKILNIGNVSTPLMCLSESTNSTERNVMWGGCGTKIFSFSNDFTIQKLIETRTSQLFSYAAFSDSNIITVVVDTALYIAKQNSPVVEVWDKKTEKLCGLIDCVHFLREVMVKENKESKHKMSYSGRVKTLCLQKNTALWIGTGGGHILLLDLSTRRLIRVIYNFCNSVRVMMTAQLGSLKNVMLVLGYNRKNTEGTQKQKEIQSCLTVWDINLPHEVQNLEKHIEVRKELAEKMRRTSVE
Method in brief: (§1)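 Competition binding against immobilized biotinylated ligand for DNA-tagged wild-type or G2019S LRRK2, produced from T7 phage-infected E. coli (MOI 0.4, 32° C.) lysate then HEK293 cells. Beads blocked and washed in SeaBlock buffer (1% BSA, 0.05% Tween 20, 1 mM DTT); compounds prepared as 40× stocks in 100% DMSO.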

[17] = biological target: LRRK2 mutant (G2019S) (Homo sapiens (Human), UniProt Q5S007, G2019S); assay: Evaluation of inhibitory activity against LRRK2 (affinity bead competition binding), G2019S mutant; details: read-out: Residual active values (%) LRRK2(G2019S); for remaining binding at 0.1 µM: 100 nM; for remaining binding at 0.5 µM: 500 nM
LRRK2 mutant (G2019S), sequence (Q5S007 whole entry G2019S, looked up): as the sequence (Q5S007 whole entry, looked up) above, with G2019S counted along it
Method in brief: as §1

[18] = biological target: MLK3 (Homo sapiens (Human), UniProt Q16584); assay: Evaluation of inhibitory activity of enzyme units, MLK3 ([γ-33P]-ATP filter assay); details: for IC50: read-out: IC50(nM) MLK3
MLK3, sequence (Q16584 whole entry, looked up): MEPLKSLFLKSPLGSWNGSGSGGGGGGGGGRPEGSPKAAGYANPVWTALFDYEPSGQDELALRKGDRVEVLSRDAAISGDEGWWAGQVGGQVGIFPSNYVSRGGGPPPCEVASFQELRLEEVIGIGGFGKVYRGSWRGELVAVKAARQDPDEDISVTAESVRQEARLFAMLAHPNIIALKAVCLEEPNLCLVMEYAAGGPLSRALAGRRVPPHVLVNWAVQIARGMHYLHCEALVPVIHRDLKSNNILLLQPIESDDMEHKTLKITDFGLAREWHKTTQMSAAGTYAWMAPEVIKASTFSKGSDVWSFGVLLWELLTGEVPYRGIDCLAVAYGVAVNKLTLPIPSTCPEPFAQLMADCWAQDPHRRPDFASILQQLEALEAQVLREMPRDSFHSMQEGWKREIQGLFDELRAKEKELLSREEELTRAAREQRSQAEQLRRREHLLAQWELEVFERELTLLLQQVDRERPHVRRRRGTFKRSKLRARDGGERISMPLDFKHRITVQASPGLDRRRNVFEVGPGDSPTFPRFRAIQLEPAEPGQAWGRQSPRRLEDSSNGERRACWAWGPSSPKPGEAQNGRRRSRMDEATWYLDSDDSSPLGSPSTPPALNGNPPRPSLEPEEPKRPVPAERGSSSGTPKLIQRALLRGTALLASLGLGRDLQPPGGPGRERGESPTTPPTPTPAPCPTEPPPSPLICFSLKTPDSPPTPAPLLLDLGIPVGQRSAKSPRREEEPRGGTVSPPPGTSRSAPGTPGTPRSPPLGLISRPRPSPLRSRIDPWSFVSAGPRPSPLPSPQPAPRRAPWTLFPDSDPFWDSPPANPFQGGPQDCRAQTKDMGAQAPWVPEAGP

[19] = biological target: MLK2 (Homo sapiens (Human), UniProt Q02779); assay: Evaluation of inhibitory activity of enzyme units, MLK2 ([γ-33P]-ATP filter assay); assay type: biochemical
[20] = tested on: α-SMA; assay: Fibrosis inhibition evaluation 2, palmitic acid-induced HepG2, real-time PCR, α-SMA; details: palmitic acid-induced HepG2 (Table 8)
[21] = tested on: TGF-β1; assay: Fibrosis inhibition evaluation 2, palmitic acid-induced HepG2, real-time PCR, TGF-β1
[22] = tested on: Fibronectin-1; assay: Fibrosis inhibition evaluation 2, palmitic acid-induced HepG2, real-time PCR, Fibronectin-1
[23] = U-937, 10 μM, 72 hours, CCK-8 (Table 3)
[24] = 10 μM, 72 hours, CCK-8, read-out: Cancer cell proliferation inhibitory activity Jurkat
[25] = 72 h, read-out: Cancer cell proliferation inhibitory activity Jurkat

Work on `CCS(=O)(=O)N1CC[C@H](Nc2c(Br)cnc3nc(-c4cc(C)n(-c5ccc(OCCN6CCOCC6)cc5)c4C)[nH]c23)C1` [Example 4, (S)-6-bromo-2-(2,5-dimethyl-1-(4-(2-morpholinoethoxy)phenyl)-1H-pyrrol-3-yl)-N-(1-(ethylsulfonyl)pyrrolidine-3-yl)-1H-imidazo[4,5-b]pyridine-7-amine] yielded an inhibition at 10 µM ([1]; MDA-MB-231, 10 μM, 72 hours, CCK-8, read-out: Cancer cell proliferation inhibitory activity MDAMB231) of 10 to 50%, an inhibition at 10 µM ([2]; U-937, 10 μM, 72 hours, CCK-8 (Table 2)) greater than 50% and an inhibition at 10 µM ([3]; HT-29, 10 μM, 72 hours, CCK-8) greater than 50%. It also gave an inhibition at 10 µM ([4]; K562, 10 μM, 72 hours, CCK-8) greater than 50%, an inhibition at 10 µM [5, 23] greater than 50% and an inhibition at 10 µM [6, 24] greater than 50%. For the same compound, the inhibition at 10 µM ([7]; 10 μM, 72 hours, CCK-8) was greater than 50%, the EC50 [8] was 11.1 µM and the “Selectivity index: CC50/EC50 HK” value [9] was greater than 10.2. The EC50 [9] was 9.8 µM, the “Selectivity index: CC50/EC50 LE” value [10] was greater than 10.1 and the EC50 [10] was 9.9 µM. It also gave a CC50 at 3 days [11] greater than 100 µM.
In the case of `CCS(=O)(=O)N1CC[C@H](Nc2c(Br)cnc3[nH]c(-c4cc(C)n(-c5cc(NS(C)(=O)=O)ccc5C)c4C)nc23)C1` [Example 7, N-(3-(3-(6-bromo-7-(((S)-1-(ethylsulfonyl)pyrrolidine-3-yl)amino)-3H-imidazo[4,5-b]pyridine-2-yl)-2,5-dimethyl-1H-pyrrol-1-yl)-4-methylphenyl) methanesulfonamide], the IC50 [12] was 44 nM, the inhibition at 10 µM ([1]; MDA-MB-231, 72 h, read-out: Cancer cell proliferation inhibitory activity MDAMB231) was 10 to 50% and the inhibition at 10 µM ([2]; U-937, 72 h) was greater than 50%. For the same compound, the inhibition at 10 µM ([3]; HT-29, 72 h) was 10 to 50%, the inhibition at 10 µM ([4]; K562, 72 h) was greater than 50% and the inhibition at 10 µM ([5]; U-937, 72 h) was greater than 50%. The inhibition at 10 µM [6, 25] was greater than 50%, the inhibition at 10 µM ([7]; 72 h) was greater than 50% and the “Relative degree of expression inhibition (%) α-SMA” value [13] was 73.1%. For the same compound, the “Relative degree of expression inhibition (%) Col1A1” value [14] was 200.2%, the “Relative degree of expression inhibition (%) Col6A3” value [15] was 116.2% and the remaining binding at 0.1 µM [16] was 2.9%. For the same compound, the remaining binding at 0.5 µM [16] was 0.4%, the remaining binding at 0.1 µM [17] was 2.3% and the remaining binding at 0.5 µM [17] was 1.5%. The EC50 [8] was 31.9 µM, the “Selectivity index: CC50/EC50 HK” value [9] was greater than 2.5 and the EC50 [9] was 40 µM. For the same compound, the EC50 [10] was greater than 100 µM, the CC50 at 3 days [11] was greater than 100 µM and the IC50 [18] was 6 nM.
`CCS(=O)(=O)N1CC[C@H](Nc2c(Br)cnc3nc(-c4cc(C)n(-c5cccc(NS(C)(=O)=O)c5)c4C)[nH]c23)C1` [Example 12, (S)—N-(3-(3-(6-bromo-7-((1-(ethylsulfonyl)pyrrolidine-3-yl)amino)-1H-imidazo[4,5-b]pyridine-2-yl)-2,5-dimethyl-1H-pyrrol-1-yl)phenyl) methanesulfonamide] showed an IC50 [19] of 65 nM, an IC50 [12] of 52 nM and an inhibition at 10 µM ([5]; U-937, 72 h) of 10 to 50%. It also gave an inhibition at 10 µM [6, 25] of 10 to 50%, an inhibition at 10 µM ([7]; 72 h) greater than 50% and a remaining binding at 0.1 µM [16] of 16%. The remaining binding at 0.5 µM [16] was 3.7%, the remaining binding at 0.1 µM [17] was 3.6% and the remaining binding at 0.5 µM [17] was 0.5%. The EC50 [8] was 100 µM, the “Selectivity index: CC50/EC50 HK” value [9] was greater than 3.7 and the EC50 [9] was 27 µM. The EC50 [10] was greater than 100 µM, the CC50 at 3 days [11] was greater than 100 µM and the IC50 [18] was 7 nM. The “Relative degree of expression inhibition (%) α-SMA” value [20] was 49.92%, the “Relative degree of expression inhibition (%) TGF-β1” value [21] was 113.03% and the “Relative degree of expression inhibition (%) Fibronectin-1” value [22] was 74.32%.
With `CCS(=O)(=O)N1CC[C@H](Nc2c(Br)cnc3[nH]c(-c4cc(C)n(-c5cc(S(N)(=O)=O)ccc5Cl)c4C)nc23)C1` [Example 17, 3-(3-(6-bromo-7-(((S)-1-(ethylsulfonyl)pyrrolidine-3-yl)amino)-3H-imidazo[4,5-b]pyridine-2-yl)-2,5-dimethyl-1H-pyrrol-1-yl)-4-chlorobenzenesulfonamide] the inhibition at 10 µM [5, 23] was 10 to 50%, the inhibition at 10 µM [6, 24] was greater than 50% and the inhibition at 10 µM ([7]; 10 μM, 72 hours, CCK-8) was greater than 50%. The “Selectivity index: CC50/EC50 PR8” value [8] was greater than 1.1, the EC50 [8] was 92.9 µM and the “Selectivity index: CC50/EC50 HK” value [9] was greater than 9.3. For the same compound, the EC50 [9] was 10.8 µM, the EC50 [10] was greater than 100 µM and the CC50 at 3 days [11] was greater than 100 µM. It also gave a pIC50 [18] of 7.92.
For `CCS(=O)(=O)N1CC[C@H](Nc2c(Br)cnc3nc(-c4cc(C)n(-c5cccc(S(N)(=O)=O)c5)c4C)[nH]c23)C1` [Example 23, (S)-3-(3-(6-bromo-7-((1-(ethylsulfonyl)pyrrolidine-3-yl)amino)-1H-imidazo[4,5-b]pyridine-2-yl)-2,5-dimethyl-1H-pyrrol-1-yl)benzenesulfonamide], the IC50 [19] was 56 nM, the IC50 [12] was 25 nM and the inhibition at 10 µM ([5]; U-937, 72 h) was 10 to 50%. The inhibition at 10 µM [6, 25] was greater than 50%, the inhibition at 10 µM ([7]; 72 h) was 10 to 50% and the EC50 [8] was greater than 100 µM. The “Selectivity index: CC50/EC50 HK” value [9] was greater than 3.2, the EC50 [9] was 31.6 µM and the EC50 [10] was greater than 100 µM. For the same compound, the CC50 at 3 days [11] was greater than 100 µM and the IC50 [18] was 17 nM.
